Results published in patent publication US9649271B2, “Hair thickening compositions and methods of use” (The Procter & Gamble Company, priority 2013, dated 2017).

Assays:
[1] = Measurement of average thickness increase of single hair fibers
Protocol: The fibers are then removed and allowed to equilibrate and dry overnight. • 4) The next day, the fibers are imaged and measured for a final reading. For each experiment, untreated control and product treatment controls are ran, and at least 5 fibers are measured per treatment. • 5) In order to measure increase in thickness as a function of treatment, the […]. The average thickness increase is reported in the Table above, with measurements reported in micrometers. Viscosity Test Method

[2] = Viscosity test method (cone and plate viscometer/rheometer); format: physicochemical; settings: hair care composition (Example 1 formula) with 0.15% resorcinol of the given type, 1.89% Sepigel
Excerpt: The viscosity of the hair care composition may be determined by a cone and plate viscometer/rheometer which measures the viscous drag resulting from the sample material contained in the gap between a rotating cone and a stationary plate. The geometry of the cone and plate may be such that the entire sample is subjected to a uniform shear rate.

For `Oc1ccc(Cl)c(O)c1` [Resorcinol 1, 4-Chlororesorcinol], the “average thickness increase compared to Resorcinol Type 2 and Type 3 (in words)” value ([1]; Example 1 formula, different types of resorcinol substituted) was “measurable average thickness increase”.
In the case of `Oc1cccc(O)c1` [Resorcinol 3, 1,3-Dihydroxybenzene], the “Average Thickness Increase” value ([1]; Example 1 formula with 0.15% resorcinol of the given type, 1.89% Sepigel, fibers treated 10 minutes, dried overnight, at least 5 fibers per treatment) is reported as 3.5 μm and the Viscosity [2] is reported as 15958 cps.
